Measured values: ChEMBL document CHEMBL3301361, “Experimental in vitro DMPK and physicochemical data on a set of publicly disclosed compounds”
Values after ≈ are worked out from the molar mass of the structure shown.

Experiments:
physchem [1] = experiment: physchem
physchem [2] = experiment: physchem; remark: listed apart in the source
physchem [3] = details: octan-1-ol/water, pH 7.4, LogD7.4
physchem [4] = details: pH 7.4 buffer
in vitro [5] = details: human, plasma, PPB
in vitro [6] = details: SD, HW or BN, rat, plasma
in vitro [7] = details: human, liver microsomes
in vitro [8] = details: hepatocytes
in vitro [9] = details: human, hepatocytes

| SMILES | pKa (physchem [1]) | pKa (physchem [2]) | also measured |
| --- | --- | --- | --- |
| OCc1ccnc2c(O)cccc12 | 4.64 | 9.45 |  |
| CN(C)C1CCc2c(ccc(O)c2O)C1 (configuration not stated) | 10.5 | 8.85 |  |
| NC1CCc2c(ccc(O)c2O)C1 (configuration not stated) | 10.5 | 8.9 |  |
| NC1CCc2cc(O)c(O)cc2C1 (configuration not stated) | 10.5 | 9.1 |  |
| NCC1CCC(C(=O)O)CC1 (configuration not stated) | 10 | 4.9 |  |
| NCC1Cc2c1ccc(O)c2O (configuration not stated) | 8.5 | 10.4 |  |
| CCOC(=O)[C@H](CCc1ccccc1)N[C@@H](C)C(=O)N1CCC[C@H]1C(=O)O | 6.4 | 3.1 |  |
| CCCN(CCC)C1CCc2c(O)cccc2C1 (configuration not stated) [5-OH-DPAT] | 10.8 | 9.25 |  |
| Nc1ncnc2c1ncn2CCOCP(=O)(O)O [ADEFOVIR] | 4.34 | 7.66 |  |
| CNCCc1ccc(O)c(O)c1 [DEOXIEPINEPHRINE] | 10.9 | 8.97 |  |
| CCc1cccc2c3c([nH]c12)C(CC)(CC(=O)O)OCC3 (configuration not stated) [ETODOLAC] |  | 4.15 | hepatocyte CLint (in vitro [9]): 12.9 µL/min/1e6 cells |
| CCn1cc(C(=O)O)c(=O)c2cc(F)c(N3CCNC(C)C3)c(F)c21 (configuration not stated) [LOMEFLOXACIN] | 8.87 | 5.82 | logD (physchem [3]): -1.1 |
| Nc1nc2c(ncn2CCC(CO)CO)c(=O)[nH]1 [PENCICLOVIR] | 2.97 | 9.48 |  |
| COC(=O)c1cc2nc([S+]([O-])Cc3ncccc3C)[nH]c2cc1C (configuration not stated) [PICOPRAZOLE] | 3.5 | 8.1 |  |
| CCCN(CCC)CCc1ccc(O)c2c1CC(=O)N2 [SKF-89124A] | 10.2 | 8.35 |  |

Continued, in another order:

| pKa (physchem [1]) | pKa (physchem [2]) | SMILES | also measured |
| --- | --- | --- | --- |
|  | 5.3 | CCC(CC)NC(=O)c1cn(-c2ccccc2)nc1NS(=O)(=O)c1ccc(C)cc1 | logD (physchem [3]): 2.51; solubility thermodynamic (physchem [4]): 174 µM (≈ 74.1 µg/mL); fraction unbound at 5 h (in vitro [5]): 0.0013; fraction unbound at 5 h (in vitro [6]): 0.0033; microsomal CLint (in vitro [7]): 9 µL/min/mg; hepatocyte CLint (in vitro [8]): 7 µL/min/1e6 cells |
| 6.17 | 8.61 | O=C(Nc1ccc(N2CCOCC2)c(F)c1)c1nnc(Nc2ccccc2F)o1 | logD (physchem [3]): 3.6; solubility thermodynamic (physchem [4]): 1.3 µM (≈ 0.522 µg/mL) |
| 8.85 | 4.55 | O=C(O)c1ccc(N2CCC(CN3CCC(Oc4ccc(Cl)c(Cl)c4)CC3)CC2)cc1 |  |
| 8.9 | 4.4 | O=C(O)Cc1cccc(N2CCC(CN3CCC(Oc4ccc(Cl)c(Cl)c4)CC3)CC2)c1 |  |
| 8.1 | 4.3 | O=C(NS(=O)(=O)N1CCC(N2CCC(Oc3ccc(Cl)c(Cl)c3)CC2)CC1)c1ccccc1 | logD (physchem [3]): 2.14 |
| 3.45 | 9.05 | Nc1nc(-c2ccccc2)cc(=O)[nH]1 |  |
| 4.37 | 9.61 | Cc1c(O)nc(N)nc1-c1ccccc1 |  |
|  | 6.2 | O=C(NCC12CC3CC(CC(C3)C1)C2)c1cc(-n2ncc(=O)[nH]c2=O)ccc1Cl | logD (physchem [3]): 2.1; fraction unbound at 5 h (in vitro [6]): 0.0171; microsomal CLint (in vitro [7]): 83.8 µL/min/mg; hepatocyte CLint (in vitro [8]): 15.3 µL/min/1e6 cells; hepatocyte CLint (in vitro [9]): 37 µL/min/1e6 cells |
| 9.1 | 5.77 | NC1CCN(c2c(F)cc3c(=O)c(C(=O)O)cn(C4CC4)c3c2Cl)C1 (configuration not stated) [CLINAFLOXACIN] |  |
| 7.91 | 5.6 | CN1CCN(c2c(F)cc3c(=O)c(C(=O)O)cn(CCF)c3c2F)CC1 [FLEROXACIN] |  |
| 9.18 | 6.05 | COc1c(N2CCNC(C)C2)c(F)cc2c(=O)c(C(=O)O)cn(C3CC3)c12 (configuration not stated) [GATIFLOXACIN] | logD (physchem [3]): -0.82 |
| 8.6 | 6.36 | CO/N=C1\CN(c2nc3c(cc2F)c(=O)c(C(=O)O)cn3C2CC2)CC1CN (configuration not stated) [GEMIFLOXACIN] |  |
| 6.05 | 4.29 | CCCc1nc(C(C)(C)O)c(C(=O)OCc2oc(=O)oc2C)n1Cc1ccc(-c2ccccc2-c2nnn[nH]2)cc1 [OLMESARTAN MEDOXOMIL] |  |
|  | 7.17 | CC(C)(C)c1cc(NC(=O)NCc2ccccc2Sc2ccc3nnc(-c4ccccc4SCCO)n3c2)n(-c2ccc(O)c(Cl)c2)n1 [PF-03715455] | fraction unbound at 5 h (in vitro [6]): 0.0013; microsomal CLint (in vitro [7]): > 150 µL/min/mg; hepatocyte CLint (in vitro [8]): 70.8 µL/min/1e6 cells; hepatocyte CLint (in vitro [9]): 25.1 µL/min/1e6 cells |
| 3.1 | 8.8 | [O-][S+](Cc1ccccn1)c1nc2ccccc2[nH]1 (configuration not stated) [TIMOPRAZOLE] |  |
